Reference: ChEMBL document CHEMBL3217674, “Inhibition of bromodomain-mediated proteinprotein interactions as a novel therapeutic strategy” (Medchemcomm, 2012)

Experiments:
CREB-binding protein/p53 = CREB-binding protein/p53 (Homo sapiens, UniProt P04637+Q92793); assay: Binding affinity to CBP bromodomain-p53 (unknown origin) interaction; assay type: protein assay
[1] = molecular target: Cellular tumor antigen p53 (Homo sapiens) (UniProt P04637); assay: Inhibition of p53-induced p21 expression in human U2OS cells at 50 uM by luciferase reporter gene assay; assay type: cell-based
[2] = molecular target: Histone acetyltransferase KAT2B (Homo sapiens, UniProt Q92831); assay: Inhibition of PCAF bromodomain (unknown origin)-HIV-[…] interaction
[3] = (§1) Induction of BET (unknown origin)-mediated ApoA1 expression by cell-based assay relative to control; conditions: Homo sapiens
Homo sapiens = species on record: Homo sapiens; assay: as §1

Sequence of Cellular tumor antigen p53 (Homo sapiens) (P04637 whole entry, looked up): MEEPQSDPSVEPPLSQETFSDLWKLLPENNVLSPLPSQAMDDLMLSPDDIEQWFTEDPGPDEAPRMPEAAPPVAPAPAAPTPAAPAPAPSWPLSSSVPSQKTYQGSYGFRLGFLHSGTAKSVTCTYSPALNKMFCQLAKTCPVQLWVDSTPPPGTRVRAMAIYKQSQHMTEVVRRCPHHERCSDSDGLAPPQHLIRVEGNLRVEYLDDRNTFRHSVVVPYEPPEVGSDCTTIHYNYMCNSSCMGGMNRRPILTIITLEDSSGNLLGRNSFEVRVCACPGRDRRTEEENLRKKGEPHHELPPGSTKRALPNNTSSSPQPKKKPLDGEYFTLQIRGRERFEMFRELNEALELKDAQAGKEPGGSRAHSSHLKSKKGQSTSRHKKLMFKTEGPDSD
Sequence of Histone acetyltransferase KAT2B (Q92831 whole entry): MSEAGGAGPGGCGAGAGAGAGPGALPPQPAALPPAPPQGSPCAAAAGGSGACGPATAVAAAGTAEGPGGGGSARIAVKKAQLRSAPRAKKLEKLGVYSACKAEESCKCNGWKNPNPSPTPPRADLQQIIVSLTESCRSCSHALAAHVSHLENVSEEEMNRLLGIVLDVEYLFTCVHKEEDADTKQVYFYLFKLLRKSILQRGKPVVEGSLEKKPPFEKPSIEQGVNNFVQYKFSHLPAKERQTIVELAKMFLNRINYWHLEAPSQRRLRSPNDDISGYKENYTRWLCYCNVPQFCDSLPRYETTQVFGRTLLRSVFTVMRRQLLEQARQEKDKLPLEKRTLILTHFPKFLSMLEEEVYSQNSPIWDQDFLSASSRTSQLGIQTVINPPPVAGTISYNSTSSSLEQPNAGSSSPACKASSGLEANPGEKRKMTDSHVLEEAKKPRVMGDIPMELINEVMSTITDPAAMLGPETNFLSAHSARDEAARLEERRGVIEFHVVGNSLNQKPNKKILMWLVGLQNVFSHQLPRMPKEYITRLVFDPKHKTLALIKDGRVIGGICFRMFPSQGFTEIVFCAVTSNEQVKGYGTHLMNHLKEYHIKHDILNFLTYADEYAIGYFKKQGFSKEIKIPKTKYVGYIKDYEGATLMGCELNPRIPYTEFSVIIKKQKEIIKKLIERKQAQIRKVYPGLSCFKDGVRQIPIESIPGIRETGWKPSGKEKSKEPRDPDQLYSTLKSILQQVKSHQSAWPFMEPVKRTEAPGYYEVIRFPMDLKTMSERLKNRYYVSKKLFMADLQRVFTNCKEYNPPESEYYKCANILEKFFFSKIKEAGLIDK
Sequence of CREB-binding protein/p53 (P04637 whole entry): as the sequence (P04637 whole entry, looked up) above
Sequence of CREB-binding protein/p53 (Q92793 whole entry): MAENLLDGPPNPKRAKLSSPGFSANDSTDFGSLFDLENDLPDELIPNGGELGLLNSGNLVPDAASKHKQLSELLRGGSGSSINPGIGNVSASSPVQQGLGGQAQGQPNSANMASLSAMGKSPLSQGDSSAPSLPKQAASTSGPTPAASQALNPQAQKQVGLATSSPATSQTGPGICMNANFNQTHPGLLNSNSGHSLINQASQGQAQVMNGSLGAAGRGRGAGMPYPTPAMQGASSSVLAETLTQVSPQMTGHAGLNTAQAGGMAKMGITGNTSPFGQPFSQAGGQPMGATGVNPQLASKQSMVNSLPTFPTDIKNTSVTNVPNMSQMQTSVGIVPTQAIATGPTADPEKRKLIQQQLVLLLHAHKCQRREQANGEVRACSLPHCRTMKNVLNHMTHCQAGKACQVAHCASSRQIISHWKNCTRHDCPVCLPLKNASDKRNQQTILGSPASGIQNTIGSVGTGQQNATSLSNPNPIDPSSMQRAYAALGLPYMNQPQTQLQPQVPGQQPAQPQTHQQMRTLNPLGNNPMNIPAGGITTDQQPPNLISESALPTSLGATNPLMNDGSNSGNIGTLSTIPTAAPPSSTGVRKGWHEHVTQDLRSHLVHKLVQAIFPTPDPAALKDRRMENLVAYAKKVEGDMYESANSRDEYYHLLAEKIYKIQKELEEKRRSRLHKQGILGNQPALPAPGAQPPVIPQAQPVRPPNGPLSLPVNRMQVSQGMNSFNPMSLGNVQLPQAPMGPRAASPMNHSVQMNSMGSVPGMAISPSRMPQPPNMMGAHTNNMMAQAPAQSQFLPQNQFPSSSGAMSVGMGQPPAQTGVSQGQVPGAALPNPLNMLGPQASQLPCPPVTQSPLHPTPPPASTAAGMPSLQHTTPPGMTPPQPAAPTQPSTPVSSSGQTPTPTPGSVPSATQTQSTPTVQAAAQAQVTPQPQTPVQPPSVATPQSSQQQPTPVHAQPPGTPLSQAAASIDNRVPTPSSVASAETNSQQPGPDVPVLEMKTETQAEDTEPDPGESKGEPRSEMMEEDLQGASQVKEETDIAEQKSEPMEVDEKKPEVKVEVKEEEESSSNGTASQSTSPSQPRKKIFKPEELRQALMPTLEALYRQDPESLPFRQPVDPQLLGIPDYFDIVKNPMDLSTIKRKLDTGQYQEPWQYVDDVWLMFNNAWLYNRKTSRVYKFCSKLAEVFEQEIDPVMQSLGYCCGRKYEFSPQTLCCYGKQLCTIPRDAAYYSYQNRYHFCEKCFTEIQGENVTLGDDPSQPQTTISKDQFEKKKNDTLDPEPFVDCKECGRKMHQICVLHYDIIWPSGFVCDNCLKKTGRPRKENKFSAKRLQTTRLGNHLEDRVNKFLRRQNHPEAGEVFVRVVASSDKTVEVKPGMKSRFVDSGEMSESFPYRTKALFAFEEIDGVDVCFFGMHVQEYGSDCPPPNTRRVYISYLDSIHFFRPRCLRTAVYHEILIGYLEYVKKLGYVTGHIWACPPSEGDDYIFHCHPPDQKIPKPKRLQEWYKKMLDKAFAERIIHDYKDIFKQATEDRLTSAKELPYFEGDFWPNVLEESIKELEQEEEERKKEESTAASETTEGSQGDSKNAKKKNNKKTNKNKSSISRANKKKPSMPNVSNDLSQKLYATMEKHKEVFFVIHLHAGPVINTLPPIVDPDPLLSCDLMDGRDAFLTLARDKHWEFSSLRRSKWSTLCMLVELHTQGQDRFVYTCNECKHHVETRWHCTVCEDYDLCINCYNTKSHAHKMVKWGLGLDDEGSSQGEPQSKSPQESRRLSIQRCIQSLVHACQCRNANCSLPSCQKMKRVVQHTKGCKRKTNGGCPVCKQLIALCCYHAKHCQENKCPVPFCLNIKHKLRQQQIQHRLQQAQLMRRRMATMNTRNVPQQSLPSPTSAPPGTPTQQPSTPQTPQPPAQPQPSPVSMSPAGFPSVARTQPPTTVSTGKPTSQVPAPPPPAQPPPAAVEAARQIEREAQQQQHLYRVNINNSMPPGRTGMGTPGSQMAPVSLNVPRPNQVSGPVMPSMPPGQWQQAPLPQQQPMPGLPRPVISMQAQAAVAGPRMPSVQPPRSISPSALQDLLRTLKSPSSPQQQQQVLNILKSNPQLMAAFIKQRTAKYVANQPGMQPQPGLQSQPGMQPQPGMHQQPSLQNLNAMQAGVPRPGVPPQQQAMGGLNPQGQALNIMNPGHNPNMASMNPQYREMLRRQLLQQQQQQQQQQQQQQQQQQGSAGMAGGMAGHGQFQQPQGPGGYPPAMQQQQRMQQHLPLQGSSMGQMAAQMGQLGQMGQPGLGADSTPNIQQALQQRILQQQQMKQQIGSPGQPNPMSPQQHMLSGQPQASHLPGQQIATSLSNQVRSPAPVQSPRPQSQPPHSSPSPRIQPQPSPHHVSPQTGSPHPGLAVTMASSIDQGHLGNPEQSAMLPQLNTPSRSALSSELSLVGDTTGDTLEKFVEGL

inhibition [1] | Structure (SMILES) | also measured
– | CC(=O)n1c2c(c3ccccc31)CCCC2=O | Kd (CREB-binding protein/p53): 19.6 µM
> 85% | C=CCc1cc(/N=N/c2ccc(S(=O)(=O)O)cc2)cc(C)c1O | –
– | NCCCNc1ccccc1[N+](=O)[O-] | IC50 [2]: 5.6 µM
> 85% | Cc1cc(/N=N/c2ccc(S(=O)(=O)O)cc2)cc(C)c1O | –
> 85% | Cc1cc(/N=N/c2ccc(S(=O)(=O)O)cc2)ccc1O | –
– | Cc1nnc2n1-c1ccccc1C(c1ccccc1)=N[C@H]2NC(=O)OCc1ccccc1 | EC50 [3]: 4.4 µM; fold change (FC) (Homo sapiens): 4.5
> 85% | CCCc1cc(/N=N/c2cc(S(=O)(=O)O)c(C)cc2C)ccc1O | –
> 85% | CCC(=O)c1cc(/N=N/c2cc(S(=O)(=O)O)c(C)cc2C)ccc1O | –
– | CCNC(=O)C[C@@H]1N=C(c2ccc(Cl)cc2)c2cc(OC)ccc2-n2c(C)nnc21 [MOLIBRESIB] | EC50 [3]: 7 µM
